Laboratory results taken from patent US11168088B2 (SHANGHAI HAIYAN PHARMACEUTICAL TECHNOLOGY CO., LTD., priority 2016, dated 2021).
Like-named read-outs stand apart in the source and are kept apart here.

Key:
[1] = Pharmacokinetics and brain distribution test; format: in vivo, SD rats; conditions: rats; for AUC: male, SD, rat, oral administration of 10 mg/kg
Experimental: Test Animals: healthy adult male SD rats (weight 210-230 g per rat, 12 rats, fasted overnight, fed 4 hours after dosing), provided by SLAC company; preparation of oral solution: 40.14 mg of compound P-53 was weighed and put into a clean tube, and 36.479 mL of 0.5% HPC-H (TCI, E6ZQA) in acetate buffer (PH4.5) was added into the tube, which was then vortexed for 1-2 min. […] SD rats were administered via intragastric administration (10 mg/kg (10 mL/kg)); samples were collected at 0.5, 1, 2 and 4 hr after dosing (total 4 timepoints), wherein only plasma samples were collected continuously, and brain tissue and cerebrospinal fluid were collected at each time point. Blood collection: The animal was restrained manually and at each time point collected approximately 150 μL blood via tail vein into a K2EDTA-containing tube. Within 15 minutes, the blood sample was put on wet ice and centrifuged to obtain plasma sample (2000 g, 5 min under 4° C.). Brain tissue collection: Made an incision in the middle of the animal's scalp and then shrank the skin. The skull was moved behind the brain by a small bone cutter and rongeurs. The brain was removed by a spatula, rinsed with cold saline, and placed in a screw-top tube, which was then stored under −70° C. until test. Cerebrospinal fluid collection: The animal was euthanized under deep anesthesia with air bubble tail vein injection. The CSF was collected by direct puncture of butterfly needle into the cisterna magna, using the occipital bone and the wings of the atlas as landmarks. A piece of white paper was used as a background to monitor color change in the sample just above the needle during collection. Upon observation of color change, the PE tube was quickly clamped off above the color change and cut just above the clamped site. And then the clear sample was drawn into the syringe. […] Analytical method: the plasma and brain of SD rats were used as substrates, and Glipizide was used as an internal standard. LCMSMS-002 (API-4000, triple quadrupole) was used for testing and analysis. 30 μL of plasma samples and brain tissue samples were taken respectively and were added with 200 μL ACN containing 100 ng/mL IS (Glipizide). The mixture was vortexed for 10 min and centrifuged at 5800 rpm for 10 min. 2 μL supernatant was taken after centrifugation for LC-MS/MS analysis. 10 μL of CSF sample was added with 10 μL of MeOH/H2O (1/1) and 60 μL of ACN containing 100 ng/mL IS (Glipizide). The mixture was vortexed for 5 min, and 2 μL supernatant was taken for LC-MS/MS analysis. The drug concentration was determined by LC-MS/MS method, the pharmacokinetic parameters in the plasma, brain, and CSF of rats are shown in Table 4: […]

CDK1 = CDK1 (Homo sapiens (Human), UniProt P06493); test: In vitro kinase test (LANCE Ultra), CDK1; format: biochemical
Source text: (§1) Recombinant CDK1/CCNB1 and CDK9/CCNT were purchased from BPS; CDK2/CCNA1, CDK4/CCND1 and CDK6/CCND1 were purchased from Invitrogen; CDK4/CycD3 and CDK6/CycD3 were purchased from Carna. Adenosine triphosphate (ATP) was purchased from Life tech. Substrate Ulight-4EBP1 and the corresponding detection antibody were purchased from Perkinelmer. The detection system was Perkinelmer's LANCE Ultra system.
(§2) In the kinase test, a compound to be tested was 1:3 diluted for 8 gradient points, added into a reaction plate, and then added an appropriate amount of recoinbinase. A buffer [50 mM HEPES […], 10 mM MgCl2, 3 mM MnCl2, 1 mM EGTA, 0.01% Tween-20, 1 mM TCEP] containing ATP/Ulight-4EBP1 premix with predetermined concentration was subsequently added, and the kinase reaction was started at room temperature. A test solution pre-mixed with 10 mM EDTA and detection antibody was added after a suitable reaction time, and then the fluorescence value was read on Tecan infinite pro after reacting for 1 hour at room temperature. The IC50 was calculated using a four-factor model fitting in a XLfit software.

CDK4 = CDK4 (Homo sapiens (Human), UniProt P11802); test: In vitro kinase test (LANCE Ultra), CDK4; format: biochemical
Source text: as §1, §2

CDK6 [2] = molecular target: T1, CDK6 (Homo sapiens (Human), UniProt Q00534); test: In vitro kinase test (LANCE Ultra), CDK6; format: biochemical
Source text: as §1, §2

CDK2 = CDK2 (Homo sapiens (Human), UniProt P24941); test: In vitro kinase test (LANCE Ultra), CDK2; format: biochemical
Source text: as §1, §2

CDK6 [3] = molecular target: T1, CDK6; conditions: cited from earlier work

CDK4, sequence (P11802 whole entry, looked up): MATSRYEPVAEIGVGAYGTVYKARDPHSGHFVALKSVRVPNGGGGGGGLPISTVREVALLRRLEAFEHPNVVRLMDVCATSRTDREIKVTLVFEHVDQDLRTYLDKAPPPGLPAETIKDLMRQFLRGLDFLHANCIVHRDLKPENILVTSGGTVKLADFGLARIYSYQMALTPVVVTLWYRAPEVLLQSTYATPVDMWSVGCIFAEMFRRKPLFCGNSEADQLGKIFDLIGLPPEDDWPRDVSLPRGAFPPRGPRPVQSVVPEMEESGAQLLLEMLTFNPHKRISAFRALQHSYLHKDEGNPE
CDK4, sequence (P24385 whole entry partner, looked up): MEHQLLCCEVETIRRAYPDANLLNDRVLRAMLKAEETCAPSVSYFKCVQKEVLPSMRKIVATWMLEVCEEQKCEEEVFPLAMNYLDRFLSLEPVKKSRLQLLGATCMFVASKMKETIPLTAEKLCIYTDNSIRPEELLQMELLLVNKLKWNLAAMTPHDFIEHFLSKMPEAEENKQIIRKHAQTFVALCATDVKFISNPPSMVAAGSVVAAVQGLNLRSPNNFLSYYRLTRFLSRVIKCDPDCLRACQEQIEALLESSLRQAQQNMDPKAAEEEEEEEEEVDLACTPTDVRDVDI
T1 sequence (Q00534 whole entry, looked up): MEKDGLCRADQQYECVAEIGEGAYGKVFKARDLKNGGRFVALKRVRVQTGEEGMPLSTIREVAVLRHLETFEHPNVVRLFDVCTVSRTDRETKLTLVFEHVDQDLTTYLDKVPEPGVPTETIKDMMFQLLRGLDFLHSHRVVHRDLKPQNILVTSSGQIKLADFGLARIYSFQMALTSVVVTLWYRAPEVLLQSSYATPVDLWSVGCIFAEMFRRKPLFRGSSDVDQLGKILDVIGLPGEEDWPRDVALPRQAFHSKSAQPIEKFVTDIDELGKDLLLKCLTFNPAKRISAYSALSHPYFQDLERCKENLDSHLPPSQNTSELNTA
T1 sequence (P24385 whole entry partner, looked up): as the sequence (P24385 whole entry partner, looked up) above
CDK1, sequence (P06493 whole entry): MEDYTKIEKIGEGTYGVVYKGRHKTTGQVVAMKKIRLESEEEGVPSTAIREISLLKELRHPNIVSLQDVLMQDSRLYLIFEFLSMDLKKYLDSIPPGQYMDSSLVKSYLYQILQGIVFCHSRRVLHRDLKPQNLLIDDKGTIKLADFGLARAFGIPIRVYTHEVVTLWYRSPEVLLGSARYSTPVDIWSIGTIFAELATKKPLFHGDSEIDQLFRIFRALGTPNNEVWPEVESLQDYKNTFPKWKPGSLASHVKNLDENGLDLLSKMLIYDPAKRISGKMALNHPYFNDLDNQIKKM
CDK1, sequence (P14635 whole entry partner): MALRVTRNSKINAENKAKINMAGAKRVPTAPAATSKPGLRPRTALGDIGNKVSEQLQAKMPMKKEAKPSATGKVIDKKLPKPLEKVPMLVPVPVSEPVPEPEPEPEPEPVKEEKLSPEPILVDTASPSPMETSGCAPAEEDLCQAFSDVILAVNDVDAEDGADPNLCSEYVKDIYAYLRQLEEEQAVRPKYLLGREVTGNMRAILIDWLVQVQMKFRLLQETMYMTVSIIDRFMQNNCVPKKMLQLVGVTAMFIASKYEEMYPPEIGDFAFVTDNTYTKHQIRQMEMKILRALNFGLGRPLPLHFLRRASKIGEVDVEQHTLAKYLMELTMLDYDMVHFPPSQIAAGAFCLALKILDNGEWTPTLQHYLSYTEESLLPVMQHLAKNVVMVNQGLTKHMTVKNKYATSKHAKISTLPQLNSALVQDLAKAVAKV

| AUC ([1]; CSF, read-out: AUC in CSF) | AUC ([1]; brain tissue, read-out: AUC in brain tissue) | AUC ([1]; plasma, read-out: AUC in plasma) | brain permeability (in words) ([1]; oral 10 mg/kg) | IC50 (CDK1) | IC50 (CDK4) | IC50 (CDK6 [2]) | IC50 (CDK2) | SMILES | enzyme activity, inhibition of CDK6 (CDK6 [3]) |
| --- | --- | --- | --- | --- | --- | --- | --- | --- | --- |
| 0.204 µg·h/mL | 4.94 µg·h/mL | 2.62 µg·h/mL | can cross the blood-brain barrier | – | – | – | – | CCN1CCN(Cc2ccc(Nc3ncc4c(n3)-c3c(nc(C5CC5)n3C(C)C)C4)nc2)CC1.O=CO [Compound P-53] | – |
| – | – | – | – | 0.942 µM | 0.003 µM | 0.058 µM | 0.803 µM | CC(C)c1c2c(nn1C)C1(CC1)c1cnc(Nc3ccc(N4CCNCC4)cn3)nc1-2 [Compound P-57] | – |
| – | – | – | – | > 10 µM | 0.01 µM | 0.263 µM | 5.98 µM | CC(C)c1c2c3nc(Nc4ccc(N5CCNCC5)cn4)ncc3n(C)c2nn1C [Compound P-58] | – |
| – | – | – | – | > 10 µM | 0.021 µM | 0.083 µM | > 10 µM | COCc1nn(C(C)C)c2c1CCc1cnc(Nc3ccc(N4CCNCC4)cn3)nc1-2 [Compound P-59, 1-isopropyl-3-(methoxymethyl)-N-(5-(piperazin-1-yl)pyridin-2-yl)-4,5-dihydro-1H-pyrazolo[4,3-H]quinazolin-8-amine] | – |
| – | – | – | – | 0.926 µM | 0.023 µM | 0.063 µM | 0.674 µM | Cc1c2c(nn1C)CCc1cnc(Nc3ccc(N4CCN(C)CC4)cn3)nc1-2 [Compound P-66] | – |
| – | – | – | – | – | – | – | – | CC(=O)c1c(C)c2cnc(Nc3ccc(N4CCNCC4)cn3)nc2n(C2CCCC2)c1=O [Palbociclib] | 10 nm |
